Reference: patent US20260242440A1, “NOVEL MEANS TO MODULATE NMDA RECEPTOR-MEDIATED TOXICITY” (FUNDAMENTAL PHARMA GMBH, priority 2018, published 2026)

Assays:
[1] = system: primary mouse hippocampal neurons; experiment: NMDA induced cell death (excitotoxicity) in cultured primary neurons; type: cell-based; details: polypeptide expressed via rAAV infection on DIV3, NMDA 20 μM for 10 min, cell death assessed 24 h later
Protocol: Primary mouse hippocampal and cortical neurons were prepared and maintained as known. Briefly, hippocampi or cerebral cortex from P0 C57Bl/6NCrl mice were dissociated and plated at a density of 1.2*105/cm^2 in Growth Medium (GM), consisting of Neurobasal A medium (Gibco™, 10888022), 2% serum free B27™ Supplement (Gibco™, 17504044), 1% rat serum (Biowest, S2150), 0.5 mM L-Glutamine (Sigma, G7513) and 0.5% P-S. Cytosine β-D-arabinofuranoside (AraC; Sigma, C1768; 2.8 μM) was added on DIV3 to prevent the proliferation of glial cells. From DIV8, half of the medium was replaced by GM without Rat serum every 48 h until being used for experiments. 24 h before experiments, GM was replaced with transfection medium (10 mM HEPES, pH 7.4, 114 mM NaCl, 26.1 mM NaHCO3, 5.3 mM KCl, 1 mM MgCl2, 2 mM CaCl2, 30 mM glucose, 1 mM glycine, 0.5 mM C3H3NaO3, and 0.001% phenol red and 10% of phosphate-free Eagle's minimum essential medium, supplemented with 7.5 µg/ml insulin, 7.5 µg/ml transferrin and 7.5 ng/ml sodium selenite (ITS Liquid Media Supplement, Sigma-Aldrich Cat #I3146)). Primary hippocampal neurons were used in live cell imaging, cell death experiments, while cortical neurons were used for mRNA and protein extraction analysis.
All viral particles were produced and purified as known in the art. All TRPM4 derived peptides (comprising SEQ ID NO:5, or any of SEQ ID NO:46 to SEQ ID NO:56) were cloned into rAAV backbone by PCR. shRNA against mouse TRPM4 were designed by BLOCK-iT™ RNAi Designer from Thermofisher to target: […] (SEQ ID NO:44, shTRPM4-1) and […] (SEQ ID NO:45, shTRPM4-2). Scramble shRNA (shSCR) has been tested and proven to have no known targets in mice. GPI anchor ([…], e.g. used in SEQ ID NO:53) sequences were synthesized by Eurofins Genomics (Ebersberg, Germany). All primers were synthesized and all plasmids were confirmed by sequencing by Eurofins Genomics.
In order to investigate the role of TRPM4 in NMDA receptor mediated excitotoxicity, the inventors used RNA interference strategies to knock down TRPM4. Cultured primary mouse hippocampus neurons were infected on day 3 in vitro (DIV3) with recombinant adeno-associated viruses (rAAVs) providing for expression of a scramble control (shSCR), shTRPM4-1 (SEQ ID NO:44) or shTRPM4-2 (SEQ ID NO:45). On DIV15-16, neurons were challenged with N-methyl-D-aspartate (NMDA, 20 μM) for 10 min. After NMDA wash out, neurons were kept in the culture medium for another 24 h before analysis. […] Evidently, TRPM4 is thus involved in the process of NMDA receptor mediated excitotoxicity.
In a next step, the inventors tried to identify regions in the mouse TRPM4 protein potentially involved in NMDA receptor mediated excitotoxicity. For this purpose, polypeptide fragments of mouse TRPM4 protein were generated and their impact on NMDA induced excitotoxicity analysed. To do so, primary neuron cultures were infected with respective rAAVs on DIV3, challenged with NMDA (20 μM) for 10 min on DIV17 and cell death assessed 24 hours later.
The sequence of SEQ ID NO:5 in TRPM4 is located in vivo just beneath the plasma membrane. […] To test this hypothesis, the inventors created a fusion protein comprising SEQ ID NO:5 and a GPI anchor, SEQ ID NO:57. The sequence of the fusion is given in SEQ ID NO:53. Neurons infected with rAAV and expressing SEQ ID NO:47 (control) or SEQ ID NO:53 were exposed to NMDA (20 μM) for 10 min on DIV15-16, with cell death assessed after 24 h.
In a next step, the inventors created a mutant of SEQ ID NO:5, in which two adjacent phenylalanine residues where substituted by tyrosine residues (SEQ ID NO: 54). […] TRPM5 is a protein related to but nonetheless distinct to TRPM4. The region in TRPM5 corresponding to SEQ ID NO:5, SEQ ID NO:55, shares only about 60% sequence identity with SEQ ID NO:5. Neurons were infected on DIV3 with rAAVs expressing SEQ ID NO: 5, SEQ ID NO: 54 or SEQ ID NO:55 and exposed to NMDA (20 μM) for 10 min on DIV17, with cell death assessed 24 h later. […]

[2] = system: primary mouse hippocampal neurons; experiment: NMDA receptor induced mitochondrial membrane potential breakdown (Rh123 imaging); type: cell-based; details: polypeptides expressed via rAAV; bath application of 20 μM NMDA
Protocol: Coverslips with primary cultured neurons (DIV15-DIV17) were used to examine mitochondrial membrane potential (Ψm) and mitochondrial calcium signalling, which was performed at room temperature in CO2-independent culture medium (CICM) containing: 10 mM HEPES, 140 mM NaCl, 2.5 mM KCl, 1.0 mM MgCl2, 2.0 mM CaCl2, 1.0 mM Glycine, 35.6 mM Glucose and 0.5 mM Na-pyruvate. All images were obtained by a cooled-CCD camera (iXon 887, Andor) on an upright microscope (BX51WI, Olympus). Fluorescence excitation was provided by a xenon arc lamp in combination with an excitation filter wheel (MT-20, Olympus). Data were collected using Cell^R software (Olympus), analysed using ImageJ and quantified using Igor Pro (WaveMetrics). Ψm was detected with the small molecule fluorescence indicator Rhodamine 123 (Rh123; Molecular Probe™, R302). Primary cultured neurons were loaded with 4.3 μM Rh123 in CICM at 37° C. for 30 min, then washed and left in CICM for another 30 min before recording. At the end of each experiment, the mitochondrial uncoupler FCCP (5 μM, Sigma-Aldrich, Cat #C2920) was applied to the cells to reach the maximal Rh123 fluorescence intensity. Rh123 was imaged with 470±20 nm excitation and 525±25 nm emission wavelengths using a 20× objective. Rh123 fluorescence intensity was measured in the nucleus to minimize contamination from cytosolic mitochondrial signal and Rh123 fluorescence intensity was normalized to the maximum FCCP signal for each region of interest.
Mitochondrial dysfunction is a hallmark of NMDA receptor excitotoxicity and an early event en-route to neuronal death. A parameter that is often used to assess mitochondrial integrity is the mitochondrial membrane potential. A breakdown of the mitochondrial membrane potential can be observed after exposure of hippocampal or cortical neurons to NMDA and indicates excitotoxicity-associated mitochondrial dysfunction. Therefore, the inventors investigated the effect of polypeptides comprising the sequence of SEQ ID NO:5 or SEQ ID NO: 54 as well as of the control TRMP5 sequence (SEQ ID NO: 55) on mitochondrial membrane potential break down in primary mouse hippocampal neurons. Excitotoxicity leading to mitochondrial membrane potential break down was induced with bath application of 20 μM NMDA. After 11 minutes, the mitochondrial uncoupler, carbonylcyanide-p-trifluoromethoxyphenylhydrazone (FCCP) was added. Addition of FCCP leads to break-down of the mitochondrial membrane potential and served as a control of the test system.

[3] = system: NMDA receptor; experiment: NMDA-induced calcium transients (Fura2 calcium imaging); type: cell-based, mouse; details: hippocampal neurons, 6 min NMDA (20 μM) application
Protocol: In a further experiment, the impact of P4 and P15 on NMDA-induced calcium transients was assessed. Briefly, for calcium imaging, primary hippocampal neurons on coverslips were loaded with the cell-permeable, high-affinity ratiometric calcium indicator Fura2-AM (Invitrogen™ F1221), at 1 μM in CO2-independent culture medium (CICM; CICM contains: 10 mM HEPES, 140 mM NaCl, 2.5 mM KCl, 1.0 mM MgCl2, 2.0 mM CaCl2, 1.0 mM Glycine, 35.6 mM Glucose and 0.5 mM Na-pyruvate) for 30 min at 37° C., then washed and left in CICM for another 30 min to allow for de-esterification. Fura2 was excited at 340/11 nm and 380/11 nm, and fluorescence emission was obtained from a 40× UV compatible objective (LUMPLFLN, Olympus) through a 510/20 nm emission filter. For quantification, ImageJ was used to calculate average background-subtracted fluorescence intensities for 340 and 380 nm excitation (F340 and F380) from each neuron. Intracellular calcium levels were plotted as F340/F380 ratios over time, from which the NMDA response amplitude and area under the curve (AUC) was calculated to quantify NMDA-induced calcium influx.

[4] = system: HEK293 cells; experiment: Luminescent cytotoxicity assay, HEK293 cells transfected with GRIN1 and GRIN2A or GRIN2B; type: cell-based, human; details: compound added 6 h after transfection; cell death 48 h after transfection
Protocol: HEK293 cells were cultured in Dulbecco's Modified Eagle Medium (DMEM, Gibco™ 41965-039) supplement with 10% Fetal Bovine Serum (FBS, Gibco™, 10270), 1% Sodium Pyruvate (Gibco™, 11360070), 1% MEM NEAA (GibcoT^M, 11140035) and 0.5% Penicillin-Streptomycin (P-S; Sigma, P0781) and Passagel5-25 were used for experiments.
To test the cytotoxicity of compounds according to the present invention, HEK293 cells (70-80% confluent) were transfected 24 hours after plating with both GRIN1 and GRIN2 Å or GRIN2B, respectively (1:[…]) with Lipofectamine 2000 according to manufacturer's instructions. The relative number of dead cells in the population at the indicated time points after transfection was measured with the CytoTox-Glo™ Cytotoxicity assay (Promega, G9290) according to manufacturer's instruction with minor modification. Briefly, 10% of total medium were mixed with 10 μL AAF-amino luciferin to reach a final volume at 200 μL with water, the dead cell relative luminescence units (DRLU) was measured by GloMax (Promega) in a 96 well white bottom polystyrene microplate (Corning Costar®, 3912). After all the measurements, lysis reagents have been added to the cells and 10% of lysate was used for the total cell relative luminescence units (TRLU) measurement. Cell death was calculated by the following equations: […]
For drug testing, P4, P8, P9, P13 and P15 were added to the medium at indicated concentration 6 h after transfection. DRLU, TRLU and cell death were measured and calculated 48 h after transfection.

[5] = system: primary mouse hippocampal neurons; experiment: NMDA induced cell death (excitotoxicity) in cultured primary neurons; type: cell-based; details: neurons incubated 1 h with 1 or 10 μg fusion protein before NMDA 20 μM 10 min; cell death 24 h later

SEQ ID NO:55: corresponding region of mouse TRPM5, about 60% sequence identity with SEQ ID NO:5, negative control (NSEDRAFALLVRRNHSWSRTTCLHLATEADAKAFFAHDGVQAFLTKIWWGDMATGTP; listed as Mus musculus) [reference compound]
protection against NMDA induced cell death (neuroprotective effect) [1]: not capable of reducing NMDA receptor-mediated cell toxicity
protection against NMDA induced cell death (neuroprotective effect) ([1]; listed as SEQ ID NO: 55): did not reduce NMDA receptor-mediated cell toxicity
NMDA receptor induced mitochondrial membrane potential breakdown [2]: not capable of preventing NMDA receptor induced mitochondrial membrane potential breakdown

MK-801 maleate [reference compound]
NMDA-induced calcium transients [3]: completely blocked

CNCC1CCN(C(=O)c2ccc(-n3cnc4ccccc43)cc2)CC1 [P8]
NMDA receptor induced cell death [4]: reduced the level of NMDA receptor induced cell death

CC1(CN)CCN(CC(=O)Nc2cc(Cl)ccc2Cl)C1 (centres unmarked) [P13]
NMDA receptor induced cell death [4]: reduced the level of NMDA receptor induced cell death

O=C(NCc1ccc(CN2CCC(O)CC2)cc1)C1CC(F)(F)CN1 (centres unmarked) [P9]
NMDA receptor induced cell death [4]: reduced the level of NMDA receptor induced cell death

B1: SEQ ID NO:56: fusion protein of SEQ ID NO:5 and protein transduction domain TAT (SEQ ID NO:42) (protein)
chain: RKKRRQRRRSQPNSEERAARLLLRRCPLWGEATCLQLAMQADARAFFAQDGVQSLLTQKWWGEMDSTTP
modifications: Fusion protein composed of TAT peptide and SEQ ID NO: 5
protection against NMDA excitotoxicity (cell death) [5]: protected neurons from NMDA excitotoxicity
